# From patent US20260250318A1, “COMPOSITIONS AND METHODS FOR CROSSING THE BLOOD BRAIN BARRIER” (VOYAGER THERAPEUTICS, INC., priority 2022, published 2026)
# Key:
# [1] = test system: brains, heart, liver, muscle, and DRG of the NHPs; assay: Maturation of TTM-001 and TTM-002 capsids, NGS enrichment in NHP tissues; format: in vivo; settings: relative to AAV9 control
# Method in brief: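 Variants carry mutations within and flanking the loop IV peptide insert: positions 450–466 were triplet-randomized, while positions 449–466 received low-frequency point mutations. The combined pool went into two NHPs, and each peptide was scored by NGS enrichment ratio against AAV9.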
# [2] = test system: brain; assay: Matured TTM-001 and TTM-002 variants, NGS enrichment in mouse brain; format: in vivo, mice; settings: relative to AAV9 control
# [3] = NGS fold-enrichment of matured AAV capsid variants, NHP brain, RNA
# [4] = NGS fold-enrichment of RNA, NHP brain
# [5] = NGS fold-enrichment, DRG of NHPs
# [6] = NGS fold-enrichment, NHP liver DNA
# [7] = NGS fold-enrichment, NHP liver RNA
# [8] = NGS fold-enrichment, NHP muscle
# [9] = NGS fold-enrichment, RNA, brain of NHPs
# [10] = NGS fold-enrichment, heart of NHPs
# [11] = NGS fold-enrichment, liver DNA of NHPs
# [12] = NGS fold-enrichment, liver RNA of NHPs
# [13] = NGS fold-enrichment, muscle of NHPs
# [14] = NGS fold-enrichment, brain of mice
# [15] = NGS fold-enrichment, mouse brain
Sequence,"Fold Enrichment relative to AAV9, Brain (NHP) [1, 4]","Fold Enrichment relative to AAV9, DRG (NHP) [1, 5]","Fold Enrichment relative to AAV9, DRG (NHP) ([1]; NGS fold-enrichment, NHP DRG)","Fold Enrichment relative to AAV9, Heart (NHP) ([1]; NGS fold-enrichment, NHP heart)","Fold Enrichment relative to AAV9, Liver DNA (NHP) [1, 6]","Fold Enrichment relative to AAV9, Liver RNA (NHP) [1, 7]","Fold Enrichment relative to AAV9, Muscle (NHP) [1, 8]","Fold Enrichment relative to AAV9, Brain (NHP) [1, 9]","Fold Enrichment relative to AAV9, Heart (NHP) [1, 10]","Fold Enrichment relative to AAV9, Liver DNA (NHP) [1, 11]","Fold Enrichment relative to AAV9, Liver RNA (NHP) [1, 12]","Fold Enrichment relative to AAV9, Muscle (NHP) [1, 13]","Fold Enrichment relative to AAV9, Brain (Mouse) [2, 14]","Fold Enrichment relative to AAV9, Brain (Mouse) [2, 15]",further results
KTSNGSGSPHSKAQNLQI,–,–,–,–,–,–,–,–,–,–,–,–,–,–,"Fold Enrichment relative to AAV9, Brain (NHP) [1, 3]: 52.843 fold; Fold Enrichment relative to AAV9, DRG (NHP) ([1]; NHP DRG): 0.000 fold; Fold Enrichment relative to AAV9, Heart (NHP) ([1]; NHP heart): 0.000 fold; Fold Enrichment relative to AAV9, Liver DNA (NHP) ([1]; NHP liver, DNA): 0.214 fold; Fold Enrichment relative to AAV9, Liver RNA (NHP) ([1]; NHP liver, RNA): 0.178 fold; Fold Enrichment relative to AAV9, Muscle (NHP) ([1]; NHP muscle): 1.605 fold; Fold Enrichment relative to AAV9, Brain (Mouse) ([2]; mouse brain): 74.823 fold"
KTSNGSGSPHSKAQNPPT,91.528 fold,0.000 fold,0.000 fold,0.000 fold,0.039 fold,0.000 fold,0.000 fold,91.528 fold,0.000 fold,0.039 fold,0.000 fold,0.000 fold,51.541 fold,51.541 fold,–
KTSNGSGSPHSKAQNQST,–,–,–,–,–,–,–,–,–,–,–,–,–,–,"Fold Enrichment relative to AAV9, Brain (NHP) [1, 3]: 53.353 fold; Fold Enrichment relative to AAV9, DRG (NHP) ([1]; NHP DRG): 0.000 fold; Fold Enrichment relative to AAV9, Heart (NHP) ([1]; NHP heart): 0.000 fold; Fold Enrichment relative to AAV9, Liver DNA (NHP) ([1]; NHP liver, DNA): 0.014 fold; Fold Enrichment relative to AAV9, Liver RNA (NHP) ([1]; NHP liver, RNA): 0.000 fold; Fold Enrichment relative to AAV9, Muscle (NHP) ([1]; NHP muscle): 0.000 fold; Fold Enrichment relative to AAV9, Brain (Mouse) ([2]; mouse brain): 120.897 fold"
KTSNGSGSPHSKAQNYQT,–,–,–,–,–,–,–,–,–,–,–,–,–,–,"Fold Enrichment relative to AAV9, Brain (NHP) [1, 3]: 57.894 fold; Fold Enrichment relative to AAV9, DRG (NHP) ([1]; NHP DRG): 0.000 fold; Fold Enrichment relative to AAV9, Heart (NHP) ([1]; NHP heart): 0.082 fold; Fold Enrichment relative to AAV9, Liver DNA (NHP) ([1]; NHP liver, DNA): 0.110 fold; Fold Enrichment relative to AAV9, Liver RNA (NHP) ([1]; NHP liver, RNA): 0.000 fold; Fold Enrichment relative to AAV9, Muscle (NHP) ([1]; NHP muscle): 0.000 fold; Fold Enrichment relative to AAV9, Brain (Mouse) ([2]; mouse brain): 63.681 fold"
KTSNGYDSPHKSGQKQQT,77.001 fold,–,0.032 fold,0.286 fold,0.016 fold,0.000 fold,0.000 fold,–,–,–,–,–,–,8.813 fold,–
KTSSGSGSPHSKAQYQQT,87.304 fold,0.000 fold,0.000 fold,0.000 fold,0.299 fold,0.000 fold,0.000 fold,87.304 fold,0.000 fold,0.299 fold,0.000 fold,0.000 fold,58.143 fold,58.143 fold,–
KTSYGNGSPHSKAQNQQT,105.937 fold,0.000 fold,0.000 fold,0.000 fold,0.114 fold,0.000 fold,0.000 fold,105.937 fold,0.000 fold,0.114 fold,0.000 fold,0.000 fold,105.894 fold,105.894 fold,–
KTTNGHDSPHKSGQNLLT,77.738 fold,–,0.130 fold,0.064 fold,0.326 fold,0.424 fold,0.185 fold,–,–,–,–,–,–,15.192 fold,–
KTTNGHDSPHKSGQNQQG,85.113 fold,–,0.000 fold,0.107 fold,0.017 fold,0.000 fold,0.000 fold,–,–,–,–,–,–,10.555 fold,–
KTTNGHDSPHKSGQTQLT,115.637 fold,–,0.000 fold,0.283 fold,0.321 fold,0.052 fold,0.000 fold,–,–,–,–,–,–,17.885 fold,–
KTTNGQDSPHKSGQNQQS,92.419 fold,–,0.000 fold,0.037 fold,0.079 fold,0.000 fold,0.043 fold,–,–,–,–,–,–,7.592 fold,–
KTTNGSGSPHSKAHNQLT,–,0.000 fold,–,–,–,–,–,69.062 fold,0.000 fold,0.000 fold,0.708 fold,0.000 fold,65.505 fold,–,–
KTTNGSGSPHSKAQYQHT,–,0.000 fold,–,–,–,–,–,67.325 fold,0.000 fold,0.080 fold,1.378 fold,0.000 fold,83.337 fold,–,–
KTVDGHDSPHKSGQKQQT,78.802 fold,–,0.000 fold,0.069 fold,0.342 fold,0.157 fold,0.000 fold,–,–,–,–,–,–,7.200 fold,–
KTVHGNGSPHSKAQNQQT,90.073 fold,0.000 fold,0.000 fold,0.000 fold,0.304 fold,0.000 fold,0.000 fold,90.073 fold,0.000 fold,0.304 fold,0.000 fold,0.000 fold,97.003 fold,97.003 fold,–
